From ChEMBL document CHEMBL1129455, “Chemistry of the pyrrolo[1,2-alpha]benzimidazole antitumor agents: influence of the 7-substituent on the ability to alkylate DNA and inhibit topoisomerase II” (1996)

Tests used:
Format in all cases: functional
Cancer cell lines [1] = test: The concentration to cause 50% cancer cell lethality and the value is the mean value which was obtained from 60 cancer cell line assay
Cancer cell lines [2] = test: concentration to inhibit 50%cancer cell growth and the value is the mean value which was obtained from 60 cancer cell line assay
Cancer cell lines [3] = test: concentration to inhibit 100%cancer cell growth and the value is the mean value which was obtained from 60 cancer cell line assay; details: read-out: Log TGI (converted)

SMILES | LC50 (Cancer cell lines [1]) [nM] | GI50 (Cancer cell lines [2]) [nM] | TGI (Cancer cell lines [3]) [nM]
O=C1C=C(N2CC2)C(=O)c2c1nc1n2CCC1 | > 100000 | > 100000 | > 100000
O=C1C(N2CC2)=CC(=O)c2c1nc1n2CCC1 | 5500 | 363 | 1350
CC(=O)OC1CCn2c1nc1c2C(=O)C=C(N2CC2)C1=O (configuration not stated) | 5250 | 269 | 1070
COC1=C(N2CC2)C(=O)c2nc3n(c2C1=O)CCC3 | 13500 | 708 | 2510
COC1=C(NC(C)=O)C(=O)c2nc3n(c2C1=O)CCC3OC(C)=O (configuration not stated) | 74100 | 18600 | 38900
CC(=O)NC1=C(C)C(=O)c2c(nc3n2CCC3)C1=O | 10700 | 1450 | 3720
CC1=C(N2CC2)C(=O)c2nc3n(c2C1=O)CCC3 | 2040 | 18.2 | 105
CC(=O)NC1=C(C)C(=O)c2c(nc3n2CCC3OC(C)=O)C1=O (configuration not stated) | 18600 | 1580 | 4790
CC(=O)OC1CCn2c1nc1c2C(=O)C(C)=C(N2CC2)C1=O (configuration not stated) | 245 | 12 | 31.6
